Reference: patent US7141553B2, “A3AR agonists for the treatment of inflammatory arthritis” (Can-Fite Biopharma Ltd. Israel, priority 2002, dated 2006)

System: adjuvant induced arthritis
Test: Adjuvant arthritis model in Lewis rats
Type: in vivo, rat

CNC(=O)[C@H]1O[C@@H](n2cnc3c(NCc4cccc(I)c4)nc(Cl)nc32)[C@H](O)[C@@H]1O [Cl-IB-MECA, 2-chloro-N^6-(3-iodobenzyl)-adenosine-5′-N-methyl-uronamide]
appearance of paws (10 μg/kg a day PO, untreated rat paws extremely swollen and red): normal appearing paws | improvement of arthritis score, 10 μg a day compared with 100 μg/kg a day (PO, from day 7 after disease induction, FIG. 4): significantly more effective
